In patent publication US20230201030A1, “DISSOLVABLE MEDICAL DEVICE FOR DRUGS DELIVERY” (Alcon Inc., priority 2021, published 2023):

System: pupil
Experiment: Response behavior of phenylephrine (pupil dilation) delivered in the presence/absence of the polymeric film
Assay type: in vivo
Conditions: 0.005% phenylephrine with polymeric film vs 2.5% phenylephrine alone
Procedure: In the groups with such treatments, a 0.1-0.2 g lens was applied to the center of the cornea. 1 drop of dilating agent (phenylephrine) of predetermined concentration was applied at t(0). Size of pupil was measured using a pre-measured device for reference and followed up using the same scale.

SMILES: CNC[C@H](O)c1cccc(O)c1 [phenylephrine, Phenylephrine]
- reduction of drug load at similar efficacy: 500 fold
